Assay results: PMC7426420, “Cupid, a cell permeable peptide derived from amoeba, capable of delivering GFP into a diverse range of species” (Scientific Reports, 2020)

System: Dictyostelium discoideum AX2 strain cells
Assay: Cell penetration into Dictyostelium amoeba cells, fluorescence microscopy of fixed cells
Assay type: cell-based
Settings: 10 µM, 60 min in buffer, washed 3 times, fixed with Fluorsave, green fluorescent filter; GFP proteins denatured, non-fluorescent when added
Experimental: Dictyostelium discoideum AX2 strain cells were grown on Klebsiella aerogenes plates. For experimentation, cells at the growth zone were collected and washed 5 times with 10 mM potassium phosphate buffer, pH 7.2 and seeded in slide chambers at a density of 10^5 cells/mL. Cells were incubated with FITC-labelled Cupid, Cupid-GFP or H-GFP at the doses indicated for 60 min, washed 3 times in buffer and fixed in situ using Fluorsave (Calbiochem, UK) under a coverslip. Cell microscopy was performed on an upright fluorescence microscope (Olympus BX61) with the green fluorescent filter set, coupled with a digital camera.

| Substance | cells become fluorescent (cell-penetrating capability) |
| --- | --- |
| fluorescein-labelled BSA: fluorescein-labelled BSA control (data not shown) | did not |
| RRVQIWFQNKRAKVKR [F-Cupid] | caused the cells to become fluorescent |
